In patent publication US10077268B2, “FXR agonists and methods for making and using” (Salk Institute for Biological Studies, priority 2014, dated 2018):
Where two headings read alike, the source gives them in different places.

Experiments:
human TGR5 = molecular target: T1, human TGR5 (Homo sapiens, UniProt Q8TDU6); assay: cAMP-response element luciferase reporter in HEK293 cells transfected with human TGR5; format: cell-based
T1 construct: expressed in transfected cells; host or cells: HEK293
T1 sequence (Q8TDU6 1-330): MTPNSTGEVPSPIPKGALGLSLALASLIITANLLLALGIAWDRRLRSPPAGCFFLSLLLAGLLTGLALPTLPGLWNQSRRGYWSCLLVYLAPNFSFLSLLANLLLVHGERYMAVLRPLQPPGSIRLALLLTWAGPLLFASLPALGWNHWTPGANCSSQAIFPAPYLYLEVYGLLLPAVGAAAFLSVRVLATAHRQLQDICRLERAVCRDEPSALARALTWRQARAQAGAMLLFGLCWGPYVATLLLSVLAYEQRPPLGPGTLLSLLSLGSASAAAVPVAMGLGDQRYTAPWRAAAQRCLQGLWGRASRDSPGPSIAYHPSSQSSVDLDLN
Protocol: HEK293 cells were transfected with expression vectors for cAMP-response element luciferase, β-galactosidase and human TGR5. 24 hours after transfection, cells were treated with fexaramine or INT-777 (a TGR5 agonist).

[1] = system: serum bile acid composition; assay: Serum bile acid composition by mass spectrometry; format: in vivo, mice
Protocol: Mice fed a HFD for 14 weeks were maintained on a HFD and treated with vehicle or fexaramine (100 mg/kg/day per os for 5 week). Serum bile acid composition was determined by mass spectrometry. N.D not determined.

normal chow-fed mice = assay: Chronic oral treatment of normal chow-fed mice; format: in vivo
Protocol: FIGS. 3A-3D are line graphs and a bar graph showing the effects of fexaramine administration in normal chow-fed mice. The mice were treated with vehicle (left bar) or fexaramine (100 mg/kg) (right bar) via PO for 5 weeks. Data represent the mean±STD. Statistical analysis as performed with the Student's t test (*p<0.05, **p<0.01).
To investigate the physiological effects of intestinal FXR activation by fexaramine, mice were subjected to chronic fexaramine (100 mg/kg Fex) PO treatment for 5 weeks.

[2] = system: gene and protein expression in BAT, ileum, liver and adipose tissues; assay: Tissue gene and protein expression in treated DIO mice; format: in vivo
Protocol: Mice were fed HFD for 14 weeks and then administered vehicle or fexaramine (100 mg/kg) daily by oral administration for 5 weeks with HFD. Data represent the mean±STD. Statistical analysis was performed with the Student's t test (*p<0.05, **p<0.01).
FIGS. 7A-7H show a comparative expression chart and bar charts illustrating that fexaramine increased endogenous FGF15 signaling and changes in BA composition. Mice were fed HFD for 14 weeks and then administered daily oral injections of vehicle or fexaramine (100 mg/kg) for 5 weeks with HFD. In the bar graphs, open bars represent vehicle treatment and solid bars represent fexaramine treatment, and data represent the mean±STD. Statistical analysis was performed with the Student's t test (*p<0.05, **p<0.01).
Mice were fed on HFD for 14 weeks and subsequently subjected to daily PO injection of vehicle or fexaramine (100 mg/kg) for 5 weeks with HFD. In the bar graphs, open bars are vehicle, solid bars of fexaramine, and data represent the mean±STD. Statistical analysis was performed with the Student's t test (*p<0.05, **p<0.01).
Mice were fed HFD for 14 weeks and then subjected to daily PO injection of vehicle (open bar in bar graphs) or fexaramine (100 mg/kg) (solid bar in bar graphs) for 5 weeks with HFD.

COC(=O)/C=C/c1cccc(N(Cc2ccc(-c3ccc(N(C)C)cc3)cc2)C(=O)C2CCCCC2)c1 [fexaramine]
activation of TGR5 (human TGR5): fails to activate TGR5
activation of TGR5 (human TGR5; listed as Fex): does not activate
bile acid pool size [1]: reducing the bile acid pool size
fraction of lithocholic acid among circulating bile acids [1]: increasing the fraction of the secondary bile acid, lithocholic acid
fraction of taurocholic acid among circulating bile acids [1]: decreasing the fraction of taurocholic acid
ratio of unconjugated to conjugated cholic acid ([1]; 100 mg/kg PO 5 weeks): remarkably increased
glucose homeostasis in normal chow-fed mice (normal chow-fed mice; across a range of doses): no effects observed
weight gain, basal metabolic activity and glucose tolerance (normal chow-fed mice; chow-fed, 100 mg/kg PO 5 weeks): indistinguishable from vehicle-treated mice
D102, downstream target of TGR5, in brown adipose tissue ([2]; BAT): induce
PKA activity ([2]; BAT): increased PKA activity
expression of ERRy, PGC-1α, PGC-1β and target genes in BAT ([2]; BAT): induction
phosphorylation level of p38 ([2]; BAT): increased the phosphorylation level of p38
FGF15 expression in intestine ([2]; RNA-Seq, ileal FXR target genes): dramatically up-regulated
OXPHOS activity, transcriptional changes in inguinal, gonadal and brown adipose depots ([2]; RNA-sequencing): selectively enhance OXPHOS activity only in BAT
HSL phosphorylation and serum levels of free fatty acids ([2]; adipose depots, serum): pronounced increase
serum catecholamine levels and β3-adrenergic receptor expression ([2]; chronic treatment): increased serum catecholamine levels and β3-adrenergic receptor expression
S6K phosphorylation (mTORC1 pathway) ([2]; gonadal WAT): reduced S6K phosphorylation
levels of IKK-ε and TANK-binding kinase 1 (TBK1) ([2]; gonadal adipose tissue): reduced levels
expression of brown fat-like signature genes ([2]; inguinal adipose tissue): increased the expression
respiratory capacity in the stromal vascular fraction ([2]; inguinal adipose tissue): increased respiratory capacity
abundance of multi-locular, UCP1-expressing adipocytes ([2]; inguinal adipose tissue, immunohistochemistry): substantial increase
expression of mucosal defense genes Occludin and Muc2 ([2]; intestine): increased expression
expression of CYP8B1 and CYP27A1 ([2]; liver): not affected
expression of liver FXR target genes SHP and BSEP ([2]; liver): not altered
hepatic CYP7A1 expression, mRNA and protein level ([2]; liver): significantly repressed
hepatic expression of gluconeogenic and lipogenic genes ([2]; liver): reduced hepatic expression
circulating FGF15 ([2]; serum): increase in circulating FGF15
